Test results from patent US20240391936A1, “TETRAHYDROTHIENO PYRIDINE DERIVATIVES AS DDRS INHIBITORS” (CHIESI FARMACEUTICI S.P.A., priority 2021, published 2024).
pIC50, pKi: −log10 of the molar value.

Assays:
DDR1 [1] = target: T1, DDR1 (Homo sapiens, UniProt Q08345); experiment: DDR1 binding assay (LanthaScreen Europium Kinase Binding assay); set-up: purchased Carna Biosciences; details: binding assay, 5 nM DDR1, 20 nM Kinase Tracer 178; Ki from IC50 by Cheng-Prusoff; read-out: Ki DDR1
How it was run: (§1)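 Compounds incubated 1 h at room temperature with 5 nM kinase, Kinase Tracer 178 (20 nM for DDR1, 10 nM for DDR2) and 2 nM Eu-anti-GST antibody in pH 7.5 HEPES/MgCl2/EGTA/BRIJ35 buffer. TR-FRET 665/615 nm ratio read after 340 nm excitation; IC50 from 4-parameter fit, converted to Ki by Cheng-Prusoff.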

DDR2 = target: T2, DDR2 (Homo sapiens, UniProt Q16832); experiment: DDR2 binding assay (LanthaScreen Europium Kinase Binding assay); set-up: purchased Life Technologies; details: binding assay, 5 nM DDR2, 10 nM Kinase Tracer 178; Ki from IC50 by Cheng-Prusoff; read-out: Ki DDR2
T2 sequence (Q16832 22-855): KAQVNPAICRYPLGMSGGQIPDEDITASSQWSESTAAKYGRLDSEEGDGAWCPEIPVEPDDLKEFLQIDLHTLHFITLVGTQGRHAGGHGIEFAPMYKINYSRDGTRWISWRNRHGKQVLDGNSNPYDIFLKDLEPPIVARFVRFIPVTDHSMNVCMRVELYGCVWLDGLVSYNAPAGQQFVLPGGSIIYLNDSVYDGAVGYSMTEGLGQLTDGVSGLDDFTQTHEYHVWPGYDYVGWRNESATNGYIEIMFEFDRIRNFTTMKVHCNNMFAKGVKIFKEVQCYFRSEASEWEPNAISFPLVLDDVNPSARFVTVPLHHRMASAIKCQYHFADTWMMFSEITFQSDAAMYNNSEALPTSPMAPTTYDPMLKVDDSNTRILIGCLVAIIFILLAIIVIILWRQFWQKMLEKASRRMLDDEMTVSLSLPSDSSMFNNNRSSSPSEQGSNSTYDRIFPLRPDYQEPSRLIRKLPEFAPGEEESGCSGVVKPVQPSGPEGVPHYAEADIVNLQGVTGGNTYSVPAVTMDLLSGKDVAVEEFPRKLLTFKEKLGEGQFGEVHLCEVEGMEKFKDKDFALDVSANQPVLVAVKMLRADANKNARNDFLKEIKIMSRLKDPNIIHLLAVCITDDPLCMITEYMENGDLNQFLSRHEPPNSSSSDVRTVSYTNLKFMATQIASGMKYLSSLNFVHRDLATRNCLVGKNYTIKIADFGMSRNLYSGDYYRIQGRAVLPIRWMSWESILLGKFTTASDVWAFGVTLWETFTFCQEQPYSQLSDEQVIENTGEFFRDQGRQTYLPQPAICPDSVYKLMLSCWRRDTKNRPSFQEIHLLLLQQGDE
How it was run: as §1

DDR1 [2] = target: T1, DDR1; experiment: DDR1 cell based assay (PathHunter U2OS DDR1 assay); set-up: host or cells: U2OS-DDR1 (PathHunter); details: U2OS-DDR1 cells, bovine Type II Collagen 20 μg/ml
How it was run: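 U2OS-DDR1 PathHunter cells preincubated 30 min with compound, then stimulated overnight at 37 °C with 20 μg/ml bovine type II collagen. Luminescent complementation signal read after 1 h detection at room temperature; normalized to vehicle (0%) and collagen-only (100%) controls, IC50 from variable-slope sigmoidal fit.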

T1 sequence (Q08345 19-913): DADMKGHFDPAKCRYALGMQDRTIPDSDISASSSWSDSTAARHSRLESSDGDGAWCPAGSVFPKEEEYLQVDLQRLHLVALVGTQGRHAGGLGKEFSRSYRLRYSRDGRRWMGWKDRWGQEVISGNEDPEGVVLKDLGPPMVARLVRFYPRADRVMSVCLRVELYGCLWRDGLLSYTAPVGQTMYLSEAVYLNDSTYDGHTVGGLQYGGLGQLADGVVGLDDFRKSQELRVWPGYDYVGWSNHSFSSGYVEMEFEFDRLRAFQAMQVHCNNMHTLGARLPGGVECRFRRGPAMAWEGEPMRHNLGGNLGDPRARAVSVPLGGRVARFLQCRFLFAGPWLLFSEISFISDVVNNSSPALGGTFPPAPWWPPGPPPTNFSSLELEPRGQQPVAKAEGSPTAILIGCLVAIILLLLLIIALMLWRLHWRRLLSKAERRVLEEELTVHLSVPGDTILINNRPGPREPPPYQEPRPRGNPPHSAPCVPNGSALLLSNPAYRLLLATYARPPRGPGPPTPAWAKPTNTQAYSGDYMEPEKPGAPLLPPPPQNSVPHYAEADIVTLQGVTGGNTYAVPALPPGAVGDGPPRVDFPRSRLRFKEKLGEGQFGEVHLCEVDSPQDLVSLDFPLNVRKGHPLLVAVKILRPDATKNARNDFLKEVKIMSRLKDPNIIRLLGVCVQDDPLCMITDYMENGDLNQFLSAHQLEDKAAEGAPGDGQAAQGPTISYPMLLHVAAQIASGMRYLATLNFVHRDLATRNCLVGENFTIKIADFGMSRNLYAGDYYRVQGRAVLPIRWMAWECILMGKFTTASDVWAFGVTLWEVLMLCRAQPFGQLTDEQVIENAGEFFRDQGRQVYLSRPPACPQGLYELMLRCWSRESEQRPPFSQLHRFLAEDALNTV

`O=C(Nc1cc(CN2CCC2)cc(C(F)(F)F)c1)c1csc2c1CCN(C(=O)c1cnc3ccccn13)C2` [Example 52, N-(3-(azetidin-1-ylmethyl)-5-(trifluoromethyl)phenyl)-6-(imidazo[1,2-a]pyridine-3-carbonyl)-4,5,6,7-tetrahydrothieno[2,3-c]pyridine-3-carboxamide] was tested, and the pKi (DDR1 [1]) was over 7.60, the pKi (DDR2) was over 7.60 and the pIC50 (DDR1 [2]) was over 7.60.
With `CN(Cc1cc(NC(=O)c2csc3c2CCN(C(=O)c2cnc4ccccn24)C3)cc(C(F)(F)F)c1)C1COC1` [Example 53, 6-(imidazo[1,2-a]pyridine-3-carbonyl)-N-(3-((methyl(oxetan-3-yl)amino)methyl)-5-(trifluoromethyl)phenyl)-4,5,6,7-tetrahydrothieno[2,3-c]pyridine-3-carboxamide] the pKi (DDR1 [1]) was over 7.60, the pKi (DDR2) was over 7.60 and the pIC50 (DDR1 [2]) was 7.10 to 7.30.
In the case of `O=C(Nc1cc(CN2CCN(C3COC3)CC2)cc(C(F)(F)F)c1)c1csc2c1CCN(C(=O)c1cnc3ccccn13)C2` [Example 54, 6-(imidazo[1,2-a]pyridine-3-carbonyl)-N-(3-((4-(oxetan-3-yl)piperazin-1-yl)methyl)-5-(trifluoromethyl)phenyl)-4,5,6,7-tetrahydrothieno[2,3-c]pyridine-3-carboxamide], the pKi (DDR1 [1]) was over 7.60, the pKi (DDR2) was over 7.60 and the pIC50 (DDR1 [2]) was 7.10 to 7.30.
`CN(C)CC1CCN(Cc2cc(NC(=O)c3csc4c3CCN(C(=O)c3cnc5ccccn35)C4)cc(C(F)(F)F)c2)C1` (stereo not drawn) [Example 55, N-(3-((3-((dimethylamino)methyl)pyrrolidin-1-yl)methyl)-5-(trifluoromethyl)phenyl)-6-(imidazo[1,2-a]pyridine-3-carbonyl)-4,5,6,7-tetrahydrothieno[2,3-c]pyridine-3-carboxamide] gave a pKi (DDR1 [1]) of over 7.60, a pKi (DDR2) of over 7.60 and a pIC50 (DDR1 [2]) of 7.10 to 7.30.
With `CN(C)C1CCN(Cc2cc(NC(=O)c3csc4c3CCN(C(=O)c3cnc5ccccn35)C4)cc(C(F)(F)F)c2)C1` (stereo not drawn) [Example 56, N-(3-((3-(dimethylamino)pyrrolidin-1-yl)methyl)-5-(trifluoromethyl)phenyl)-6-(imidazo[1,2-a]pyridine-3-carbonyl)-4,5,6,7-tetrahydrothieno[2,3-c]pyridine-3-carboxamide] the pKi (DDR1 [1]) was over 7.60, the pKi (DDR2) was over 7.60 and the pIC50 (DDR1 [2]) was over 7.60.
In the case of `CN(CCO)Cc1cc(NC(=O)c2csc3c2CCN(C(=O)c2cnc4ccccn24)C3)cc(C(F)(F)F)c1` [Example 57, N-(3-(((2-hydroxyethyl)(methyl)amino)methyl)-5-(trifluoromethyl)phenyl)-6-(imidazo[1,2-a]pyridine-3-carbonyl)-4,5,6,7-tetrahydrothieno[2,3-c]pyridine-3-carboxamide], the pKi (DDR1 [1]) was over 7.60, the pKi (DDR2) was over 7.60 and the pIC50 (DDR1 [2]) was over 7.60.
Work on `CC(=O)N1CCN(Cc2cc(NC(=O)c3csc4c3CCN(C(=O)c3cnc5ccccn35)C4)cc(C(F)(F)F)c2)CC1` [Example 58, N-(3-((4-acetylpiperazin-1-yl)methyl)-5-(trifluoromethyl)phenyl)-6-(imidazo[1,2-a]pyridine-3-carbonyl)-4,5,6,7-tetrahydrothieno[2,3-c]pyridine-3-carboxamide] yielded a pKi (DDR1 [1]) of over 7.60, a pKi (DDR2) of over 7.60 and a pIC50 (DDR1 [2]) of 7.30 to 7.60.
`CN1CCN(Cc2cc(NC(=O)c3csc4c3CCN(C(=O)c3cnc5ccccn35)C4)cc(C(F)(F)F)c2)CC1=O` [Example 59, 6-(imidazo[1,2-a]pyridine-3-carbonyl)-N-(3-((4-methyl-3-oxopiperazin-1-yl)methyl)-5-(trifluoromethyl)phenyl)-4,5,6,7-tetrahydrothieno[2,3-c]pyridine-3-carboxamide] was tested, and the pKi (DDR1 [1]) was 7.30 to 7.60, the pKi (DDR2) was 7.30 to 7.60 and the pIC50 (DDR1 [2]) was 7.30 to 7.60.
`O=C(Nc1cc(CN2CCCCC2)cc(C(F)(F)F)c1)c1csc2c1CCN(C(=O)c1cnc3ccccn13)C2` [Example 60, 6-(imidazo[1,2-a]pyridine-3-carbonyl)-N-(3-(piperidin-1-ylmethyl)-5-(trifluoromethyl)phenyl)-4,5,6,7-tetrahydrothieno[2,3-c]pyridine-3-carboxamide] gave a pKi (DDR1 [1]) of over 7.60, a pKi (DDR2) of over 7.60 and a pIC50 (DDR1 [2]) of 7.10 to 7.30.
Compound `COCCN(C)Cc1cc(NC(=O)c2csc3c2CCN(C(=O)c2cnc4ccccn24)C3)cc(C(F)(F)F)c1` [Example 61, 6-(imidazo[1,2-a]pyridine-3-carbonyl)-N-(3-(((2-methoxyethyl)(methyl)amino)methyl)-5-(trifluoromethyl)phenyl)-4,5,6,7-tetrahydrothieno[2,3-c]pyridine-3-carboxamide] has a pKi (DDR1 [1]) of over 7.60, a pKi (DDR2) of over 7.60 and a pIC50 (DDR1 [2]) of 7.30 to 7.60.
Compound `CN1CCN(CCOc2cc(NC(=O)c3csc4c3CCN(C(=O)c3cnc5ccccn35)C4)cc(C(F)(F)F)c2)CC1` [Example 62, 6-(imidazo[1,2-a]pyridine-3-carbonyl)-N-(3-(2-(4-methylpiperazin-1-yl)ethoxy)-5-(trifluoromethyl)phenyl)-4,5,6,7-tetrahydrothieno[2,3-c]pyridine-3-carboxamide] has a pKi (DDR1 [1]) of over 7.60, a pKi (DDR2) of over 7.60 and a pIC50 (DDR1 [2]) of 7.30 to 7.60.
Work on `CN1CCC(Oc2cc(NC(=O)c3csc4c3CCN(C(=O)c3cnc5ccccn35)C4)cc(C(F)(F)F)c2)C1` (stereo not drawn) [Example 63, 6-(imidazo[1,2-a]pyridine-3-carbonyl)-N-[3-(1-methylpyrrolidin-3-yl)oxy-5-(trifluoromethyl)phenyl]-5,7-dihydro-4H-thieno[2,3-c]pyridine-3-carboxamide] yielded a pKi (DDR1 [1]) of over 7.60, a pKi (DDR2) of over 7.60 and a pIC50 (DDR1 [2]) of 7.10 to 7.30.
In the case of `CC(C)(C)c1cc(NC(=O)c2csc3c2CCN(C(=O)c2cnc4ccccn24)C3)n(CCO)n1` [Example 64, N-(3-(tert-butyl)-1-(2-hydroxyethyl)-1H-pyrazol-5-yl)-6-(imidazo[1,2-a]pyridine-3-carbonyl)-4,5,6,7-tetrahydrothieno[2,3-c]pyridine-3-carboxamide], the pKi (DDR1 [1]) was over 7.60, the pKi (DDR2) was over 7.60 and the pIC50 (DDR1 [2]) was 7.30 to 7.60.
For `Cc1cn(-c2cc(NC(=O)c3csc4c3CCN(Cc3cnc5ccccn35)C4)cc(C(F)(F)F)c2)cn1` [Example 65, 6-(imidazo[1,2-a]pyridin-3-ylmethyl)-N-(3-(4-methyl-11H-imidazol-1-yl)-5-(trifluoromethyl)phenyl)-4,5,6,7-tetrahydrothieno[2,3-c]pyridine-3-carboxamide], the pKi (DDR1 [1]) was over 7.60, the pKi (DDR2) was over 7.60 and the pIC50 (DDR1 [2]) was 7.10 to 7.30.
Work on `O=C(Nc1cccc(C(F)(F)F)c1)c1csc2c1CCN(C(=O)c1cnc3[nH]ccc3c1)C2` [Example 68, 6-(1H-pyrrolo[2,3-b]pyridine-5-carbonyl)-N-(3-(trifluoromethyl)phenyl)-4,5,6,7-tetrahydrothieno[2,3-c]pyridine-3-carboxamide] yielded a pKi (DDR1 [1]) of over 7.60, a pKi (DDR2) of over 7.60 and a pIC50 (DDR1 [2]) of 7.30 to 7.60.
In the case of `Cc1ccc(-n2nc(C(C)(C)C)cc2NC(=O)c2csc3c2CCN(Cc2ccnc4[nH]ccc24)C3)cc1` [Example 76, 6-((1H-pyrrolo[2,3-b]pyridin-4-yl)methyl)-N-(3-(tert-butyl)-1-(p-tolyl)-1H-pyrazol-5-yl)-4,5,6,7-tetrahydrothieno[2,3-c]pyridine-3-carboxamide], the pKi (DDR1 [1]) was over 7.60, the pKi (DDR2) was 7.30 to 7.60 and the pIC50 (DDR1 [2]) was 7.10 to 7.30.
For `Cn1nc(C(C)(C)C)cc1NC(=O)c1csc2c1CCN(Cc1cnc3[nH]ncc3c1)C2` [Example 77, 6-((1H-pyrazolo[3,4-b]pyridin-5-yl)methyl)-N-(3-(tert-butyl)-1-methyl-1H-pyrazol-5-yl)-4,5,6,7-tetrahydrothieno[2,3-c]pyridine-3-carboxamide], the pKi (DDR1 [1]) was over 7.60, the pKi (DDR2) was over 7.60 and the pIC50 (DDR1 [2]) was over 7.60.
`Cc1ccn2c(C(=O)N3CCc4c(C(=O)Nc5cc(C(C)(C)C)nn5C)csc4C3)cnc2c1` [Example 79, N-(5-tert-butyl-2-methyl-pyrazol-3-yl)-6-(7-methylimidazo[1,2-a]pyridine-3-carbonyl)-5,7-dihydro-4H-thieno[2,3-c]pyridine-3-carboxamide] showed a pKi (DDR1 [1]) of over 7.60, a pKi (DDR2) of over 7.60 and a pIC50 (DDR1 [2]) of 7.30 to 7.60.
